Measurements as given in patent US20070049593A1 (priority 2004, published 2007).
Counter-ions that a name gives are not always drawn.

biological target: T1, HCV polymerase (Hepatitis C virus genotype 1b, UniProt P26663); assay: biochemical; set-up: species or system HCV BK strain
T1 construct: a region encoding NS5B (J Virol 1991 March, 65(3), 1105-13, 544 amino acids after deletion of 47 amino acids on the C-terminal); 6xHis (C); made in house; host or cells: Escherichia coli
In short: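 Recombinant HCV BK-strain NS5B (C-terminal 47 aa deleted, His6-tagged, E. coli), 0.5 μg/ml, run with 5 μg/ml in vitro-transcribed RNA template (polyU/3′X), ATP/GTP/CTP 50 μM, UTP 2 μM plus [3H]UTP, pH 7.5, 25° C, 90 min. TCA-precipitated RNA counted by scintillation; IC50 from activity with vs without compound.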

T1 sequence (P26663 2420-2963): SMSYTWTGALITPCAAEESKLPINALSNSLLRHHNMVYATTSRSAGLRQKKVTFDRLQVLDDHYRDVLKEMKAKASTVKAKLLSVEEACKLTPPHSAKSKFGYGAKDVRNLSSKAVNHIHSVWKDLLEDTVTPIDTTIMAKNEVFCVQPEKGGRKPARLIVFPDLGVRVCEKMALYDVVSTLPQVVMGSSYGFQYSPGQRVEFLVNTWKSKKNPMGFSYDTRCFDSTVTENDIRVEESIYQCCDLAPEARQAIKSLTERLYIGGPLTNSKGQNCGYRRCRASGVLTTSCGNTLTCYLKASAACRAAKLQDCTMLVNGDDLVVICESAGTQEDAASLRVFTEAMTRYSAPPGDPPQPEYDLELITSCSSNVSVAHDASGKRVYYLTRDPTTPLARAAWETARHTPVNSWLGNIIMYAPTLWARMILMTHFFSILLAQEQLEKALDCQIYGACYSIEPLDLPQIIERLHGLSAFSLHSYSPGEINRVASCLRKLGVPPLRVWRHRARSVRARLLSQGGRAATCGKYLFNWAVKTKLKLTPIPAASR

Compound | IC50 [nM]
O=C(O)c1ccc2c(C3CCCCC3)c3n(c2c1)CCN(CCN1CCCCC1)c1cc(OCc2ccccc2)ccc1-3 [Example 1-211, 3-benzyloxy-13-cyclohexyl-5-[2-(piperidin-1-yl)ethyl]-6,7-dihydro-5H-benzo[5,6][1,4]diazepino[7,1-a]indole-10-carboxylic acid dihydrochloride] | < 100
CC(C)N(C)CCN1CCn2c(c(C3CCCCC3)c3ccc(C(=O)O)cc32)-c2ccccc21 [Example 1-212, 13-cyclohexyl-5-[2-(N-isopropyl-N-methylamino)ethyl]-6,7-dihydro-5H-benzo[5,6][1,4]diazepino[7,1-a]indole-10-carboxylic acid dihydrochloride] | < 100
CC1CCCCN1CCN1CCn2c(c(C3CCCCC3)c3ccc(C(=O)O)cc32)-c2ccc(Cl)cc21 (stereo not drawn) [Example 1-213, 3-chloro-13-cyclohexyl-5-[2-(2-methylpiperidin-1-yl)ethyl]-6,7-dihydro-5H-benzo[5,6][1,4]diazepino[7,1-a]indole-10-carboxylic acid dihydrochloride] | < 100
CC1CCCN(CCN2CCn3c(c(C4CCCCC4)c4ccc(C(=O)O)cc43)-c3ccc(Cl)cc32)C1 (stereo not drawn) [Example 1-214, 3-chloro-13-cyclohexyl-5-[2-(3-methylpiperidin-1-yl)ethyl]-6,7-dihydro-5H-benzo[5,6][1,4]diazepino[7,1-a]indole-10-carboxylic acid dihydrochloride] | < 100
CC1CCN(CCN2CCn3c(c(C4CCCCC4)c4ccc(C(=O)O)cc43)-c3ccc(Cl)cc32)CC1 [Example 1-215, 3-chloro-13-cyclohexyl-5-[2-(4-methylpiperidin-1-yl)ethyl]-6,7-dihydro-5H-benzo[5,6][1,4]diazepino[7,1-a]indole-10-carboxylic acid dihydrochloride] | < 100
O=C(O)c1ccc2c(C3CCCCC3)c3n(c2c1)CCN(CCN1CCCC1)c1cc(Cl)ccc1-3 [Example 1-216, 3-chloro-13-cyclohexyl-5-[2-(pyrrolidin-1-yl)ethyl]-6,7-dihydro-5H-benzo[5,6][1,4]diazepino[7,1-a]indole-10-carboxylic acid dihydrochloride] | < 100
O=C(O)c1ccc2c(C3CCCCC3)c3n(c2c1)CCN(CCN1CCCCCC1)c1cc(Cl)ccc1-3 [Example 1-217, 5-[2-(azepan-1-yl)ethyl]-3-chloro-13-cyclohexyl-6,7-dihydro-5H-benzo[5,6][1,4]diazepino[7,1-a]indole-10-carboxylic acid dihydrochloride] | < 100
Cc1ccc2c(c1)N(CCN1CCCCCC1)CCn1c-2c(C2CCCCC2)c2ccc(C(=O)O)cc21 [Example 1-218, 5-[2-(azepan-1-yl)ethyl]-13-cyclohexyl-3-methyl-6,7-dihydro-5H-benzo[5,6][1,4]diazepino[7,1-a]indole-10-carboxylic acid dihydrochloride] | < 100
O=C(O)c1ccc2c(C3CCCCC3)c3n(c2c1)CCN(CCC1CCCNC1)c1cc(Cl)ccc1-3 (stereo not drawn) [Example 1-219, 3-chloro-13-cyclohexyl-5-[2-(piperidin-3-yl)ethyl]-6,7-dihydro-5H-benzo[5,6][1,4]diazepino[7,1-a]indole-10-carboxylic acid dihydrochloride] | < 100
CC1COCCN1CCN1CCn2c(c(C3CCCCC3)c3ccc(C(=O)O)cc32)-c2ccccc21 (stereo not drawn) [Example 1-220, 13-cyclohexyl-5-[2-(3-methylmorpholin-4-yl)ethyl]-6,7-dihydro-5H-benzo[5,6][1,4]diazepino[7,1-a]indole-10-carboxylic acid dihydrochloride] | < 100
CN1CCCC(CCN2CCn3c(c(C4CCCCC4)c4ccc(C(=O)O)cc43)-c3ccc(Cl)cc32)C1 (stereo not drawn) [Example 1-221, 3-chloro-13-cyclohexyl-5-[2-(1-methylpiperidin-3-yl)ethyl]-6,7-dihydro-5H-benzo[5,6][1,4]diazepino[7,1-a]indole-10-carboxylic acid dihydrochloride] | < 100
CN(C)CCN(C)C(=O)CN1CCn2c(c(C3CCCCC3)c3ccc(C(=O)O)cc32)-c2ccccc21 [Example 1-222, 13-cyclohexyl-5-{[N-(2-dimethylaminoethyl)-N-methylcarbamoyl]methyl}-6,7-dihydro-5H-benzo[5,6][1,4]diazepino[7,1-a]indole-10-carboxylic acid dihydrochloride] | < 100
CN(C)CCN(C)CCN1CCn2c(c(C3CCCCC3)c3ccc(C(=O)O)cc32)-c2ccccc21 [Example 1-223, 13-cyclohexyl-5-{2-[N-(2-dimethylaminoethyl)-N-methylamino]ethyl}-6,7-dihydro-5H-benzo[5,6][1,4]diazepino[7,1-a]indole-10-carboxylic acid trihydrochloride] | < 100
CCS(=O)(=O)N1CCN(CCN2CCn3c(c(C4CCCCC4)c4ccc(C(=O)O)cc43)-c3ccccc32)CC1 [Example 1-224, 13-cyclohexyl-5-[2-(4-ethanesulfonylpiperazin-1-yl)ethyl]-6,7-dihydro-5H-benzo[5,6][1,4]diazepino[7,1-a]indole-10-carboxylic acid dihydrochloride] | < 100
CCC(=O)N1CCN(CCN2CCn3c(c(C4CCCCC4)c4ccc(C(=O)O)cc43)-c3ccccc32)CC1 [Example 1-225, 13-cyclohexyl-5-[2-(4-propionylpiperazin-1-yl)ethyl]-6,7-dihydro-5H-benzo[5,6][1,4]diazepino[7,1-a]indole-10-carboxylic acid dihydrochloride] | < 100
CC(C)OC(=O)N1CCN(CCN2CCn3c(c(C4CCCCC4)c4ccc(C(=O)O)cc43)-c3ccccc32)CC1 [Example 1-226, 13-cyclohexyl-5-[2-(4-isopropoxycarbonylpiperazin-1-yl)ethyl]-6,7-dihydro-5H-benzo[5,6][1,4]diazepino[7,1-a]indole-10-carboxylic acid dihydrochloride] | < 100
CC(C)Oc1ccc2c(c1)N(CCN1CCCCC1)CCn1c-2c(C2CCCCC2)c2ccc(C(=O)O)cc21 [Example 1-227, 13-cyclohexyl-3-isopropoxy-5-[2-(piperidin-1-yl)ethyl]-6,7-dihydro-5H-benzo[5,6][1,4]diazepino[7,1-a]indole-10-carboxylic acid dihydrochloride] | < 100
CN(C)CCN1CCn2c(c(C3CCCCC3)c3ccc(C(=O)O)cc32)-c2ccc(OCc3ccccc3)cc21 [Example 1-228, 3-benzyloxy-13-cyclohexyl-5-(2-dimethylaminoethyl)-6,7-dihydro-5H-benzo[5,6][1,4]diazepino[7,1-a]indole-10-carboxylic acid dihydrochloride] | < 100
CC(C)N1CCCC(CCN2CCn3c(c(C4CCCCC4)c4ccc(C(=O)O)cc43)-c3ccc(Cl)cc32)C1 (stereo not drawn) [Example 1-229, 3-chloro-13-cyclohexyl-5-[2-(1-isopropylpiperidin-3-yl)ethyl]-6,7-dihydro-5H-benzo[5,6][1,4]diazepino[7,1-a]indole-10-carboxylic acid dihydrochloride] | < 100
CCCN1CCCC(CCN2CCn3c(c(C4CCCCC4)c4ccc(C(=O)O)cc43)-c3ccc(Cl)cc32)C1 (stereo not drawn) [Example 1-230, 3-chloro-13-cyclohexyl-5-[2-(1-propylpiperidin-3-yl)ethyl]-6,7-dihydro-5H-benzo[5,6][1,4]diazepino[7,1-a]indole-10-carboxylic acid dihydrochloride] | < 100
CN(CCN1CCn2c(c(C3CCCCC3)c3ccc(C(=O)O)cc32)-c2ccccc21)C1CCCCC1 [Example 1-231, 13-cyclohexyl-5-[2-(N-cyclohexyl-N-methylamino)ethyl]-6,7-dihydro-5H-benzo[5,6][1,4]diazepino[7,1-a]indole-10-carboxylic acid] | < 100
CS(=O)(=O)N1CCCN(CCN2CCn3c(c(C4CCCCC4)c4ccc(C(=O)O)cc43)-c3ccccc32)CC1 [Example 1-232, 13-cyclohexyl-5-[2-(4-methanesulfonyl-1,4-diazepan-1-yl)ethyl]-6,7-dihydro-5H-benzo[5,6][1,4]diazepino[7,1-a]indole-10-carboxylic acid dihydrochloride] | < 100
COC(=O)N1CCCN(CCN2CCn3c(c(C4CCCCC4)c4ccc(C(=O)O)cc43)-c3ccccc32)CC1 [Example 1-233, 13-cyclohexyl-5-[2-(4-methoxycarbonyl-1,4-diazepan-1-yl)ethyl]-6,7-dihydro-5H-benzo[5,6][1,4]diazepino[7,1-a]indole-10-carboxylic acid dihydrochloride] | < 100
O=C(O)c1ccc2c(C3CCCCC3)c3n(c2c1)CCN(CCN1CCCCCC1)c1cc(F)ccc1-3 [Example 1-234, 5-[2-(azepan-1-yl)ethyl]-13-cyclohexyl-3-fluoro-6,7-dihydro-5H-benzo[5,6][1,4]diazepino[7,1-a]indole-10-carboxylic acid dihydrochloride] | < 100
O=C(O)c1ccc2c(C3CCCCC3)c3n(c2c1)CC(=O)N(CCN1CCCCC1)c1ccccc1-3 [Example 1-235, 13-cyclohexyl-6-oxo-5-[2-(piperidin-1-yl)ethyl]-6,7-dihydro-5H-benzo[5,6][1,4]diazepino[7,1-a]indole-10-carboxylic acid monohydrochloride] | < 100
COC(=O)N(C)CCN(C)CCN1CCn2c(c(C3CCCCC3)c3ccc(C(=O)O)cc32)-c2ccccc21 [Example 1-236, 13-cyclohexyl-5-(2-{N-[2-(N-methoxycarbonyl-N-methylamino)ethyl]-N-methylamino}ethyl)-6,7-dihydro-5H-benzo[5,6][1,4]diazepino[7,1-a]indole-10-carboxylic acid dihydrochloride] | < 100
CC1CCN(CCN2CCn3c(c(C4CCCCC4)c4ccc(C(=O)O)cc43)-c3ccccc32)C1 (stereo not drawn) [Example 1-237, 13-cyclohexyl-5-[2-(3-methylpyrrolidin-1-yl)ethyl]-6,7-dihydro-5H-benzo[5,6][1,4]diazepino[7,1-a]indole-10-carboxylic acid dihydrochloride] | < 100
